Experimental data published in US11034702B2, “Thienoisoquinolines and their derivatives for the treatment of cancer” (VALORBEC, SOCIÉTÉ EN COMMANDITE, priority 2016, dated 2021).

Tests used:
[1] = test system: MCF-10A (mammary gland fibrocystic disease) non-cancer cells; test: IC50 (viability) in MCF-10A non-cancer cells; assay type: cell-based; conditions: Homo sapiens, MCF10A non-cancer cells
Procedure: (§1) 19 variants with different structural modifications have been made. […] In particular, it is shown that C75 causes death in multiple cancer cells with IC50 values in the 100 nM range, including breast cancers (MCF7, BT549), lung cancer (A549), colorectal cancer (HCT116) in addition to HeLa cells (cervical cancer).

[2] = test system: BT549 (breast ductal carcinoma) cells; test: IC50 (viability) in BT549 cells; assay type: cell-based; conditions: Homo sapiens, BT-549
Procedure: as §1

[3] = test system: HeLa (cervical adenocarcinoma) cells; test: IC50 (viability) in HeLa cells; assay type: cell-based, human; conditions: for IC50: Homo sapiens, HeLa cells, cells printed in nM; for efficacy (effect on viability) in cancer cells vs. non-cancer cells: comparison of Table 3 IC50 values
Procedure: as §1

[4] = test system: A549 (lung carcinoma) cells; test: IC50 (viability) in A549 cells; assay type: cell-based; conditions: Homo sapiens
Procedure: as §1

[5] = test system: MCF-7 (mammary gland carcinoma) cells; test: IC50 (viability) in MCF-7 cells; assay type: cell-based; conditions: Homo sapiens, MCF7
Procedure: as §1

[6] = test system: HFF1 (fibroblast) non-cancer cells; test: IC50 (viability) in HFF1 non-cancer cells; assay type: cell-based; conditions: Homo sapiens; HFF-1 non-cancer cells
Procedure: as §1

[7] = test system: HeLa cells; test: Mitotic spindle / centrosome phenotype in HeLa cells (tubulin and DAPI staining, live imaging); assay type: cell-based, human
Procedure: There were more rounded mitotic cells after C75 treatment in comparison to the control. FIG. 1B) is a line graph showing the percentage of HeLa and HFF1 cells in mitosis after treatment with various concentrations of C75 for 8 hours. The bars indicate standard deviation. FIG. 1C) is a series of images showing cells that were fixed and co-stained for tubulin (microtubules) and DAPI (DNA). Treatment of HeLa cells with 300 nM C75 caused the mitotic spindles to be disorganized, while they were not affected in HFF1 cells. […] The scale bar for the cells is 10 μm. FIG. 1D) is a cartoon schematic showing the key features of a metaphase cell.
(§2) FIG. 2A) is a line graph showing the percentage of HCT116 (p53−/−) cells, A549 cells, HeLa cells and H1299 cells in mitosis after treatment with various concentrations of C75 for one population doubling time. All of the cell lines show an increase in the proportion of mitotic cells after treatment with 200 nM C75. The bars indicate standard deviation. […] While the mitotic spindles were not dramatically altered by C75 in HFF1 cells, they were monopolar (as shown) or fragmented in the other cell types. […] The mitotic spindles were more strongly fragmented after C75 treatment in these cells vs. the cells in FIG. 2B). […] While mitotic spindles recovered bipolarity after removing nocodazole, they remained multipolar after removing C75. FIG. 2F) is a series of time-lapse images of a live HeLa cell expressing GFP:tubulin after treatment with C75 as shown in 2D) and 2E). The scale bar for all cells is 10 μm. FIG. 2G) is a schematic showing the putative target for C75. Healthy cells have two centrosomes that separate and form a bipolar spindle, while cancer cells have aberrant centrosomes that cluster to form ‘pseudo’ bipolar spindles, and C75 may target this process and their integrity.
FIG. 3A) is a line graph showing the percentage of mitotic HeLa or HFF1 cells treated with a range of paclitaxel (Taxol™; tubulin-targeting drug) concentrations+/−C75 as indicated. The bars indicate standard deviation. FIG. 3B) is a series of bar graphs showing the proportion of HCT116 cells that have monopolar spindles, bipolar spindles with aligned chromosomes, bipolar spindles with misaligned chromosomes and multipolar/fragmented spindles after treatments as shown. Treatments include DMSO (control), varying concentrations of paclitaxel and/or varying concentrations of C75 after 7 hours. While treatment of HCT116 cells with 2.5 nM paclitaxel caused a threshold of mitotic spindle phenotypes, adding increasing concentrations of C75 in combination with 2.5 nM paclitaxel caused the phenotypes to progressively worsen. FIG. 3C) is bar graph showing the average distance between centrosome fragments in HCT116 cells after treatments as shown. While centrosome fragments moved closer together with increased concentrations of paclitaxel, they moved further apart with increased concentrations of C75. […] FIG. 3E) is a line graph showing the percentage of mitotic HeLa or HFF1 cells treated with a range of nocodazole concentrations+/−C75 as indicated. The bars indicate standard deviation. FIG. 3F) is a series of images showing fixed HeLa cells after treatment with C75+/− nocodazole co-stained for tubulin, γ-tubulin and DNA (DAPI). […] Adding nocodazole to cells treated with 300 nM C75 caused mitotic spindle phenotypes to worsen and appear more similar to those after treatment with 600 nM C75. The scale bar for all cells is 10 μm. FIG. 3G) is a bar graph showing the percentage of phenotypes observed for metaphase HeLa cells treated with nocodazole or C75, or both for 20 minutes (n>15 per treatment).
Spindle fragmentation only occurred after extensive microtubule depolymerization in colchicine-treated cells, while the spindle poles fragmented prior to changes in microtubules after C75 treatment. The scale bar for all cells is 10 μm.
C75 was further tested and found to cause mitotic arrest in HeLa cells. […]

[8] = test system: HCT116 cells; test: Mitotic spindle phenotype and centrosome fragment distance in HCT116 cells; assay type: cell-based; conditions: HCT116, paclitaxel alone
Procedure: as §2
FIG. 3A) is a line graph showing the percentage of mitotic HeLa or HFF1 cells treated with a range of paclitaxel (Taxol™; tubulin-targeting drug) concentrations+/−C75 as indicated. The bars indicate standard deviation. FIG. 3B) is a series of bar graphs showing the proportion of HCT116 cells that have monopolar spindles, bipolar spindles with aligned chromosomes, bipolar spindles with misaligned chromosomes and multipolar/fragmented spindles after treatments as shown. Treatments include DMSO (control), varying concentrations of paclitaxel and/or varying concentrations of C75 after 7 hours. While treatment of HCT116 cells with 2.5 nM paclitaxel caused a threshold of mitotic spindle phenotypes, adding increasing concentrations of C75 in combination with 2.5 nM paclitaxel caused the phenotypes to progressively worsen. FIG. 3C) is bar graph showing the average distance between centrosome fragments in HCT116 cells after treatments as shown. While centrosome fragments moved closer together with increased concentrations of paclitaxel, they moved further apart with increased concentrations of C75. […] FIG. 3E) is a line graph showing the percentage of mitotic HeLa or HFF1 cells treated with a range of nocodazole concentrations+/−C75 as indicated. The bars indicate standard deviation. […]
C75 was also tested for efficacy in different cancer cell lines. […] To further assess the role of C75 in affecting centrosomes, HeLa cells were treated with C75 for a short period of time (5 minutes), then C75 was removed and the cells were analyzed for spindle phenotypes (schematic in FIG. 2D). […]

O=S(=O)(c1cccs1)N1Cc2ccccc2-c2sccc21 [Compound C87]
IC50 [1]: 539 nM
IC50 [2]: 4200 nM
IC50 [3]: 845 nM
IC50 [4]: 750 nM
IC50 [5]: 2460 nM

Cc1ccc(S(=O)(=O)N2Cc3ccccc3-c3sccc32)cc1 [Compound C91]
IC50 [3]: 197 nM
efficacy (effect on viability) in cancer cells vs. non-cancer cells [3]: higher efficacy
IC50 [6]: 920 nM
IC50 [5]: 1020 nM

COc1ccc(S(=O)(=O)N2Cc3ccccc3-c3sc(I)cc32)cc1 [Compound C207]
efficacy (effect on viability) in cancer cells vs. non-cancer cells [3]: higher efficacy

COc1cc2c(c(OC)c1OC)-c1ccc(OC)c(=O)cc1[C@@H](NC(C)=O)CC2 [colchicine, reference compound]
spindle phenotype at lower concentrations ([7]; HeLa, 8 hours, 30 nM colchicine or 300 nM C75): bipolar spindles with less robust microtubules
spindle phenotype at higher concentrations ([7]; HeLa, 8 hours, 40 or 50 nM colchicine, 400 or 500 nM C75): fragmented spindles, but only after extensive loss of microtubules

COC(=O)Nc1nc2ccc(C(=O)c3cccs3)cc2[nH]1 [nocodazole, reference compound]
spindle phenotype after drug wash-out ([7]; metaphase HeLa, 5 minutes treatment, washed out, imaged after 40 minutes): bipolar spindles reformed
spindle phenotype, drugs alone vs. together ([7]; metaphase HeLa, nocodazole or C75 or both, 20 minutes): bipolar spindles with weak microtubules

CC(=O)O[C@H]1C(=O)[C@@]2(C)[C@H]([C@H](OC(=O)c3ccccc3)[C@]3(O)C[C@H](OC(=O)[C@H](O)[C@@H](NC(=O)c4ccccc4)c4ccccc4)C(C)=C1C3(C)C)[C@]1(OC(C)=O)CO[C@@H]1C[C@@H]2O [paclitaxel, reference compound]
change of centrosome fragment distance with increased paclitaxel concentration [8]: significant decrease in fragment distance
